From US7807368B2, “Cyclin-dependent kinase inhibitors as targets for opiod growth factor treatment” (priority 2006, dated 2010)

Key:
SCC-1 cells = experiment: Flow cytometry cell cycle distribution, synchronized SCC-1 cells; assay type: cell-based, human; conditions: 10^-6 M OGF, 14 h
Procedure: For flow cytometry, cells were synchronized with 0.5 μg/ml nocodazole (Sigma-Aldrich) for 24 h, followed by three washes with complete media. Cells were released from growth arrest by addition of complete media or OGF-supplemented media. Synchronized cells were treated with 10^−6 M OGF for 14 h, harvested with 0.25% trypsin-EDTA (Mediatech, Herndon, Va.) and fixed with 70% ethanol at −20° C. for up to 7 days before DNA analysis. DNA content was obtained by incubating cells in PBS containing propidium iodide (0.1 mg/ml) and RNase A (0.02 mg/ml) for 15 min at 22° C. Fluorescence was measured and analyzed using a BD Biosciences FACScan flow cytometer (San Diego, Calif.) and Modfit Software (Topsham, Me.).

[1] = tested on: BxPC-3 human pancreatic cancer cells; experiment: Growth curves of BxPC-3 cells; assay type: cell-based; conditions: 10^-6 M OGF
Procedure: (§1) Human pancreatic cancer cell lines BxPC-3, PANC-1, and Capan-2 were obtained from the American Type Culture Collection (Manassas, Va.), and cultured in RPMI, Dulbecco's Modified Medium, or McCoy's 5A medium, respectively. All media were supplemented with 10% fetal bovine serum, 1.2% sodium bicarbonate, and 0.25% antibiotics (5000 units/ml penicillin, 5 μg/ml streptomycin and 10 μg/ml neomycin). OGF was purchased from Sigma-Aldrich (St. Louis, Mo.), dissolved in sterile water, and used at a final concentration of 10^−6 M.
For growth curves, cells were seeded in 6-well plates at an initial density of 2×10^5 cells/well. Fresh media and OGF were added 24 hours after initial seeding, and media and OGF were replaced daily. At appropriate times, the cells were washed with PBS, trypsinized, and viable cell numbers were counted by trypan blue exclusion using a hemacytometer.

p21 = experiment: Western blot of p21 in PANC-1 cells; assay type: cell-based, human; conditions: synchronized PANC-1 cells, 6 hours
Procedure: as §1
Synchronized cells (2×10^6) from each treatment were solubilized in 200 μl RIPA buffer (1×PBS, 10 μM IGEPAL, 1 mg/ml SDS, 5 mg/ml deoxycholic acid), containing protease and phosphatase inhibitors (2 μg/ml aprotinin, 3 mg/ml phenylmethyl sulfonyl fluoride, 1 mM sodium orthovanidate, 1 μM okadaic acid). Total protein concentrations were measured using the DC protein assay kit (Bio-Rad Laboratories, Hercules, Calif.). Equal amounts of protein (40 μg) were subjected to 10% SDS-PAGE followed by transfer of proteins onto polyvinylidene difluoride (Millipore, Billerica, Mass.) using standard protocols.
The p21-targeted siRNAs were obtained from Santa Cruz Biotechnology, and negative control siRNAs were purchased from Ambion (Ambion, Inc., Austin, Tex.). For transfection, 2×10^5 cells per well were seeded in 6-well plates containing 1 ml of media without antibiotics. […]

[2] = tested on: Rabbit Tenon's Fibroblast cells (RTCFs); experiment: Cell counts of Rabbit Tenon's Fibroblast cells; assay type: cell-based; conditions: 72 hours
Procedure: OGF in dosages ranging from 10−4 to 10^−7 M were added to 24-well cultures for 72 hours; sterile water served as control. Drug or vehicle, and media were changed daily. Cell counts of Rabbit Tenon's Fibroblast cells (RTCFs) treated with OGF (10^−7 to 10^−5 M) were 28%, 33%, and 37% smaller than controls (p<0.001).

## [Met^5]-enkephalin [OGF]
SCC-1 cells
  cells in the G2/M phase: 22.7%
  cells in the S phase: 42.7%
  percentage of cells in the G0/G1 phase: 34.6%
[1]; 48 hours
  cell numbers compared to control cultures: 66%
[1]; 72 hours
  cell numbers compared to control cultures: 55%
[1]; linear regression of growth data
  mean doubling time: 51 h
p21
  p21 expression relative to control cells: increased p21 expression
[2]; 10^-4 M OGF
  decrease in cell proliferation compared to RTCFs treated with 10^-6 M OGF: 22%
  decrease in cell proliferation compared to RTCFs treated with 10^-7 M OGF: 26%
  decrease in proliferation compared to controls: 47%
[2]; 10^-5 M OGF
  Cell counts smaller than controls: 37%
[2]; 10^-6 M OGF
  Cell counts smaller than controls: 33%
[2]; 10^-7 M OGF
  Cell counts smaller than controls: 28%
